Measured values from BindingDB's records for doi:10.1021/jm00034a016 (Merck Research Laboratories, 1994).

Target: T1, Dimer of Gag-Pol polyprotein [489-587] (Human immunodeficiency virus 1, UniProt P12497)
T1 construct: 489-587
Experiment: Protease Inhibition Assay
Conditions: pH 5.5; 30 °C
Method: The IC50 values for the compounds were determined using purified HIV-1 Protease. Inhibition of the cleavage of the peptide H-Val-Ser-Gln-Asn-(L-beta-napthylalanine)-Pro-Ile-Val-OH was assessed at 30 °C, pH = 5.5 with [Enzyme] = 30 pM for 1 h, using HPLC with UV detection for quantification of the products. For the IC50 data a substrate concentration of 0.4 mg/mL was used, and data was fit to a four parameter sigmoidal equation.

## C[C@@H]1OCC[C@@H]1OC(=O)N[C@@H](Cc1ccccc1)[C@H](O)CN1C[C@H]2CCCC[C@H]2C[C@H]1C(=O)NC(C)(C)C [(2S,3S)-2-methyloxolan-3-yl N-[(2S,3R)-4-[(3S,4aS,8aS)-3-(tert-butylcarbamoyl)-decahydroisoquinolin-2-yl]-3-hydroxy-1-phenylbutan-2-yl]carbamate]
  IC50: 52.4 nM

## C[C@H]1OCC[C@H]1OC(=O)N[C@@H](Cc1ccccc1)[C@H](O)CN1C[C@H]2CCCC[C@H]2C[C@H]1C(=O)NC(C)(C)C [Isoquinoline furanyl urethane analog]
  IC50: 169 nM

## C[C@H]1[C@@H](OC(=O)N[C@@H](Cc2ccccc2)[C@H](O)CN2C[C@H]3CCCC[C@H]3C[C@H]2C(=O)NC(C)(C)C)CCS1(=O)=O [N-tert-butyldecahydro-2-[2(R)-hydroxy-4-phenyl-3(S)-[[[[2 (S)-methyl-(3 S)-l , l-dioxotetrahydrothiophene-3-yl]-oxy]carbonyl]amino]butyl]-(4aS,8aS)-isoquinoline-3(S)-carboxamide]
  IC50: 11.4 nM

## C[C@@H]1[C@H](OC(=O)N[C@@H](Cc2ccccc2)[C@H](O)CN2C[C@H]3CCCC[C@H]3C[C@H]2C(=O)NC(C)(C)C)CCS1(=O)=O [N-tert-butyldecahydro-2-[2(R)-hydroxy-4-phenyl-3(S)-[[[[4 (S)-methyl-(3 R)-l , l-dioxotetrahydrothiophene-3-yl]-oxy]carbonyl]amino]butyl]-(4aS,8aS)-isoquinoline-3(S)-carboxamide]
  IC50: 22.3 nM
